How the values were obtained:
[1] = Chromatographic hydrophobicity index on C18 column (lipophilicity); assay type: physicochemical
From the text: We began with an assay for lipophilicity, affinity for phospholipids (for 40 compounds), and drug binding to human serum albumin (HSA) (for 20 compounds), using chromatographic protocols developed by Valko [46] and implemented in our laboratory [47]. […] These methods allowed the determination of chromatographic hydrophobicity indices (CHIs), binding to HSA (%HSA), and phospholipids (CHIIAM) using a single-gradient elution experiment and comparison to reference substances.
The mobile phase flow rate was 1.5 mL/min, and the column was maintained at 30 °C. • Chiralpak® HSA (50 mm × 4 mm; 5 µm with safety guard column; Daicel Chiral Technologies, West Chester, PA, USA), mobile phase A: 50 mM ammonium acetate, mobile phase B: HPLC-grade isopropanol (VWR International, Leuven, Belgium). For the first 15 min, the linear gradient from 0 to 20% isopropanol was applied and then held at 20% isopropanol for 12 min. In the last 5 min of the sequence, the mobile phase mixture received a pure ammonium acetate solution. The column temperature was held at 30 °C, whereas the flow rate was 0.9 mL/min.
The reference substances for the calibration of HSA, C18, and IAM columns were purchased, respectively: acetanilide, butyrophenone, diclofenac, and octanonophenone (Alfa Aesar, Haverhill, MA, USA); acetophenone, benzimidazole, colchicine, indole, indometacin, paracetamol, and theophylline (Sigma-Aldrich, Steinheim, Germany); nicardipine and nizatidine (Cayman Chemical, Ann Arbor, MI, USA); carbamazepine, heptanophenone, hexanophenone, propiophenone, and valerophenone (Acros Organic, Pittsburg, PA, USA). Before chromatographic experiments, solutes were dissolved in dimethyl sulfoxide (Avantor Performance Materials Poland S.A., Gliwice, Poland) to obtain a 200 µg/mL concentration. The detection was performed in the UV region at the wavelength from 190 nm to 300 nm. The injected volume was 5 μL, and each compound was analyzed in triplicate.

[2] = Affinity to phospholipids, IAM column (CHI IAM); assay type: physicochemical; details: IAM.PC.DD2 column, pH 7.4
[3] = target: human serum albumin (HSA) (Homo sapiens, UniProt P02768); experiment: Binding to HSA, Chiralpak HSA column; details: Chiralpak HSA column
How it was run: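 HSA binding (%HSA) was estimated by HPLC on a Chiralpak HSA column at 30 °C and 0.9 mL/min. The gradient ran 0–20% isopropanol in 50 mM ammonium acetate over 15 min, then held 12 min. UV detection covered 190–300 nm, and values were calibrated against reference compounds, in triplicate.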

Danio rerio = details: in vivo
Experimental: Selected compounds were evaluated for their cardiotoxicity on the Danio rerio experimental model following the OECD 236 test. […] To explore specific toxic effects of tested compounds on the central nervous systems, locomotor activity in the Danio rerio experimental model was evaluated. Studying the reaction of zebrafish larvae to light and dark conditions can be a valuable method for assessing neurotoxicity in behavioral studies. […] This response is characterized by a rapid, coordinated movement, often involving a quick burst of swimming or a change in direction. In our experimental model, we changed light into dark conditions. […] This behavior helps them avoid potential predators and maintain optimal environmental conditions.
To determine the toxicity of the compounds [66], the fish embryo toxicity (FET) test was performed on zebrafish (Danio rerio) according to OECD Test 236. […] At the end of the exposure period (96 hpf—hours postfertilization), acute toxicity was determined based on a positive outcome in any of the four visual indicators of lethality, including the coagulation of fertilized eggs, lack of somite formation, lack of detachment of the tailbud from the yolk sac, and lack of heartbeat. The value of LD50 was calculated. Heartbeats were recorded to observe cardiotoxic effects. […]

[4] = system: MCF7 breast carcinoma cell line; experiment: Antiproliferative activity (MTS), MCF7; details: Homo sapiens, MCF7, 72 h, read-out: IC50 Values MCF7
U87MG glioblastoma cells = experiment: Antiproliferative activity (MTS), U87MG; details: Homo sapiens, U-87 MG, 72 h, read-out: IC50 Values U87MG
D2L receptor = D2L receptor (Homo sapiens, UniProt P14416); experiment: [3H]-raclopride radioligand binding assay, D2
5-HT1A receptor = target: T1, 5-HT1A receptor (Homo sapiens, UniProt P08908); experiment: [3H]-8-OHDPAT radioligand binding assay, 5-HT1A
T1 sequence (P08908 1-422): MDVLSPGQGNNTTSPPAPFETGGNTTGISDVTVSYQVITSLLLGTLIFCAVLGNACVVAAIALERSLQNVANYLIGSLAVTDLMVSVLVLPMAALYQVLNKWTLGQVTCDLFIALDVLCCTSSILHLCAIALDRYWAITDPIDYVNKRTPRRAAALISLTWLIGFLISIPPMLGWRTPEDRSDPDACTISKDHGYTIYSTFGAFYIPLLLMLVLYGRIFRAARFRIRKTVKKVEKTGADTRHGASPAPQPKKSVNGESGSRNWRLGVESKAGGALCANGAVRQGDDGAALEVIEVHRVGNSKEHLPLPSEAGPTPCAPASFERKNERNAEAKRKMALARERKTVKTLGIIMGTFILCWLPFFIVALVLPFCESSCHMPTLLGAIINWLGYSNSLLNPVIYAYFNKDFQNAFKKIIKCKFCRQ

human serum albumin (HSA), sequence (P02768 25-609): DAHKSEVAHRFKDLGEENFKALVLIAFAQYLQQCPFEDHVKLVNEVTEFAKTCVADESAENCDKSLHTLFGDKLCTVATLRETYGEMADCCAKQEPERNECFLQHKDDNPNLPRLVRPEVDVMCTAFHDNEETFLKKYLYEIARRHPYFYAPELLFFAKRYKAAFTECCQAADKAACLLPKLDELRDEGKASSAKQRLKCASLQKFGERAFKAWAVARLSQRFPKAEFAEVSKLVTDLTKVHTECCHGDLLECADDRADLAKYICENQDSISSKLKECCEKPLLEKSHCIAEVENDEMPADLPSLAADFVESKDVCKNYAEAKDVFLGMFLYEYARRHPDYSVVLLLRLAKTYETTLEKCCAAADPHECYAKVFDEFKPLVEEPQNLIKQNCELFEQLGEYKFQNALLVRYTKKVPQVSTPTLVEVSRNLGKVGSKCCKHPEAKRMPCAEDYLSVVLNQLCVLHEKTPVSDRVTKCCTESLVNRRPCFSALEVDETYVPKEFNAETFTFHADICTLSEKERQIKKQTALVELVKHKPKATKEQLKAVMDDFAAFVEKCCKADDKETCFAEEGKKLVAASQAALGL
D2L receptor, sequence (P14416 whole entry): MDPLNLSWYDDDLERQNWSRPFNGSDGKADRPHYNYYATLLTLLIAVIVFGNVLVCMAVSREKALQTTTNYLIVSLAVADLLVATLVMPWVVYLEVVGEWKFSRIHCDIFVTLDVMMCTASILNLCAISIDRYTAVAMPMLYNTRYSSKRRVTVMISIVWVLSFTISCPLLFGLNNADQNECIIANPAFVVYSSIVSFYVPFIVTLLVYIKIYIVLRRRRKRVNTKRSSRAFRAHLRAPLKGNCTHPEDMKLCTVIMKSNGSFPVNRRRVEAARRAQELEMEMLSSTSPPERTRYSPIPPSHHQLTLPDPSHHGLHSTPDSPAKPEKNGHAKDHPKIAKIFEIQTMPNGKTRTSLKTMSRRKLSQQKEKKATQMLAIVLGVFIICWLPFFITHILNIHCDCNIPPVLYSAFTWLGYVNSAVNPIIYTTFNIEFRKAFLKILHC

Compound | CHI C18 pH 2.6 [1] | CHI C18 pH 7.4 [1] | CHI C18 pH 10.5 [1] | CHI IAM [2] | %HSA [3] [%] | logKHSA [3] | cardiotoxicity (heart rate) (Danio rerio) | IC50 [4] [µM] | IC50 (U87MG glioblastoma cells) [µM] | Ki (D2L receptor) [µM] | Ki (5-HT1A receptor) [µM]
CC1NC(NS(=O)(=O)c2cccc3ccccc23)=Nc2cccc(Cl)c21 (stereo not shown) [PR 68, N -(5-chloro-4-methyl-3,4-dihydroquinazolin-2-yl)naphthalene-1-sulfonamide] | 101.4 | 99.2 | 103.0 | 45.8 | 97.7 | 1.5 | do not show cardiotoxic properties | > 25 | > 25 | 622 | 35.1
CC1NC(NS(=O)(=O)c2cccc3ccccc23)=Nc2cccc(F)c21 (stereo not shown) [PR 73, N -(5-fluoro-4-methyl-3,4-dihydroquinazolin-2-yl)naphthalene-1-sulfonamide] | 94.6 | 94.9 | 96.5 | 42.3 | 96.6 | 1.3 | do not show cardiotoxic properties | > 25 | > 25 | 146 | 80
